Format in all cases: cell-based
What all share (conditions): six hours

The target of assay [1] is T1, CK1α (Homo sapiens, UniProt P48729+Q96SW2).
T1 construct: CSNK1A1-HiBit KI HEK293(LgBit) Cells; host or cells: HEK293(LgBit) knock-in cells
The assay is described as follows: HiBiT degradation assay, CK1α, Procedure A. In outline:
(§1)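 Cells in DMEM+10% FBS at 1×10^6 cells/ml were added to pre-spotted compound (10-point dose response, 10 μM to 0.005 μM, 0.1% DMSO) and incubated 6 h at 37° C. Nano-Glo HiBiT lytic reagent was added and luminescence read. DC50 and Ymin came from 4-parameter curve fits.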
(In general: With HiBiT, luminescence reflects the tagged protein that the partner subunit can reach.)

The target of assay [2] is T2, GSPT1 (Homo sapiens, UniProt P15170+Q96SW2). Briefly: HiBiT degradation assay, GSPT1, Procedure B (Molt 4_hGSPT1_HiBIT cells). On the set-up: Molt 4_hGSPT1_HiBIT N-terminus tagged cells were generated using CRISPR technology; endogenous in cells; host or cells: Molt 4 cells, CRISPR-edited. As for the experimental part: Molt 4_hGSPT1_HiBIT N-terminus tagged cells were generated using CRISPR technology. Cells were maintained in RPMI media (Thermo Fisher Scientific, Catalog #11875-093) containing 10% Fetal Bovine Serum (Thermo Fisher Scientific, Catalog #16140071) 1% Penicillin-Streptomycin (Thermo Fisher Scientific, Catalog #25200056). Cells were maintained at 37° C. in a 5% CO2 environment.
Compounds were spotted onto Cornin 384-Well, Cell Culture-Treated, Flat-Bottom, Low Flange Microplate (Fisher Scientific, Catalog #07-201-013) using a Tecan D300e digital dispenser. Ten-point dose response curves spanning from 10 μM to 0.005 μM with a 0.1% DMSO tolerance were used.
Cells were centrifuged for 5 minutes at 1200 RPMs. Cell culture media was aspirated off and cells were resuspended with RPMI+10% FBS. Cell density was determined using a Denovix CellDrop BF cell counter. Cell density was adjusted to 1×10^6 cells/ml. 40 μl of cells was added to compound treated tissue culture plates and incubated for six hours at 37° C. After six hours, cell culture plates were removed from tissue culture incubator and cooled to room temperature. 40 μl of Nano-GloHiBiT Lytic Detection Reagent (Promega, Catalog #N3040) was added to each well. Plates were placed on an orbital shaker (600 rpm) for 20 minutes. Luminescence was measured using an Envsion plate reader (Perkin Elmer). IC50 curves and Ymin were generated using a 4-parameter curve fit with GraphPad Prism software (Prism Corporation).
Results from the HiBiT assay (DC50 (nM) and Ymin (% remaining)) are shown below. All CK1α data was generated according to Procedure A. GSPT1 data for Examples 1-600, 603-620 and 703-705 was generated according to Procedure A. GSPT1 data for Examples 601, 621-702 and 706-735 was generated according to Procedure B.

For assay [3], the target named is T2, GSPT1. Briefly: HiBiT degradation assay, GSPT1, Procedure A. On the set-up: HiBit-GSPT1 KI HEK293(LgBit) Cells; host or cells: HEK293(LgBit) knock-in cells. In a few lines:
as §1

T1 sequence (P48729 whole entry): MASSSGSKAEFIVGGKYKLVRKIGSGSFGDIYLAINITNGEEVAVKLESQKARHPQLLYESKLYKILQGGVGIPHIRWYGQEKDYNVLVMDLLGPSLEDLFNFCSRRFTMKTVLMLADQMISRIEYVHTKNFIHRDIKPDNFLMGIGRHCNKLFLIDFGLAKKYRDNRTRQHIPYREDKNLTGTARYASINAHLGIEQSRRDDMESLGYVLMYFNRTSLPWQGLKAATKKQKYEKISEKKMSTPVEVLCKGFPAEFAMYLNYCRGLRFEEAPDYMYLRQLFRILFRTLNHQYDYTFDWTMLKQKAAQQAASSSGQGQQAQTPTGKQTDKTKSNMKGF
T1 sequence (Q96SW2 whole entry): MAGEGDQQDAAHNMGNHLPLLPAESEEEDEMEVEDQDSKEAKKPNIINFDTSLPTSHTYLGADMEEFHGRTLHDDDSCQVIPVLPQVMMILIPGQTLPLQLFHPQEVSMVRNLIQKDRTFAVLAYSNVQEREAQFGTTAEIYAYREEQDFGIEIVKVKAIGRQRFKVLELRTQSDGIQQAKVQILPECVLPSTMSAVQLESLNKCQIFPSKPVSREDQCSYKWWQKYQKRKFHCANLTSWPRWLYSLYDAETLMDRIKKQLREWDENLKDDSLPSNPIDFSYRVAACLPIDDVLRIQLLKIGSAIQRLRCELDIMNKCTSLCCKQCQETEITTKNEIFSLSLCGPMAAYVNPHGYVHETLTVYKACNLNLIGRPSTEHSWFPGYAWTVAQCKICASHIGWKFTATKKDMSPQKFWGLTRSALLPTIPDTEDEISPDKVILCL
T1 sequence (Q16531 whole entry partner): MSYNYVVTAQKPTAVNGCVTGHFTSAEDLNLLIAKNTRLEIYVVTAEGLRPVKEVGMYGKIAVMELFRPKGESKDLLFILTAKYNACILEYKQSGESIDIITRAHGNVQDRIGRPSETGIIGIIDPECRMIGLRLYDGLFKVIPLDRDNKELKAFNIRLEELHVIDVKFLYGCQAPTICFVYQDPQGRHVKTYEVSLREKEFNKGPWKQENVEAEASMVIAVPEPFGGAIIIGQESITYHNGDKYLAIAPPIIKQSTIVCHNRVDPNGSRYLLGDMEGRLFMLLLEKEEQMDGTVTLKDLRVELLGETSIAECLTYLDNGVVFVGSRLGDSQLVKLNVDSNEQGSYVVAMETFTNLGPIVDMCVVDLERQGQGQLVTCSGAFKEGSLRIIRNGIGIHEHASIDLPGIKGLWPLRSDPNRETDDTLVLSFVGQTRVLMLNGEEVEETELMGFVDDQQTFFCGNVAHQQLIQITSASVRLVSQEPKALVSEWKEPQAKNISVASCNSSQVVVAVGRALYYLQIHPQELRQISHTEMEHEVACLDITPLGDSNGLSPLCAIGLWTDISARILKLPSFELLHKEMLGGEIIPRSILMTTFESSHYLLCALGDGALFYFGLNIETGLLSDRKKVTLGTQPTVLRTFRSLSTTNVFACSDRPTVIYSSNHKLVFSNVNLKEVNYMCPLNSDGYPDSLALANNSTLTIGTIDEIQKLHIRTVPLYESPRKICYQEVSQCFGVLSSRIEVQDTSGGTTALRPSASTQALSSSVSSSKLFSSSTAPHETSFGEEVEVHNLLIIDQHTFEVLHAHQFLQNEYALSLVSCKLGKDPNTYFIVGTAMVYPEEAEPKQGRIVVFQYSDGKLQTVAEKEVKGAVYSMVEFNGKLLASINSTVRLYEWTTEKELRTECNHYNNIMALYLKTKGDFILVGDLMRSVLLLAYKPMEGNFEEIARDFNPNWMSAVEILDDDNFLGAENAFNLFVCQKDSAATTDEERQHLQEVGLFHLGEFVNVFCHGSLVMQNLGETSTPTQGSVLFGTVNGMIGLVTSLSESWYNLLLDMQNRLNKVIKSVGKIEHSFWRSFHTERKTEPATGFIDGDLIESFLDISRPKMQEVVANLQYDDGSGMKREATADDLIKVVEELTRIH
T2 sequence (P15170 whole entry): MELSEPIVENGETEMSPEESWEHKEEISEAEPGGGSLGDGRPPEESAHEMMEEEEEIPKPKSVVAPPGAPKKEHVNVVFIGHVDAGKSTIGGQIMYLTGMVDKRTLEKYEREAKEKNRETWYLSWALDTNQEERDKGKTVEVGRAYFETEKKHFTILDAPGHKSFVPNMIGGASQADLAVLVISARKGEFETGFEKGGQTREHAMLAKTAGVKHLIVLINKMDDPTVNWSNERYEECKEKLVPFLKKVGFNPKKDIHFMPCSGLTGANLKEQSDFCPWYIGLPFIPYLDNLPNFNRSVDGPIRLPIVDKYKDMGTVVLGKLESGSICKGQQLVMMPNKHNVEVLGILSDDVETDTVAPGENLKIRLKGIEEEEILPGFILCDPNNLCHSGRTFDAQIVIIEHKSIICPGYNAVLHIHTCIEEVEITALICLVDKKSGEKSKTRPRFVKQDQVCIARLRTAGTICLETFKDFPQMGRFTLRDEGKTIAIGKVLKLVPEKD
T2 sequence (Q96SW2 whole entry): as the sequence (Q96SW2 whole entry) above
T2 sequence (Q16531 whole entry partner): as the sequence (Q16531 whole entry partner) above

In the case of `Cn1cc(-c2ccc3c(c2)CN(C2CCC(=O)NC2=O)C3=O)nc1[C@H]1CC[C@H](C(F)(F)F)CC1` (some centres unmarked) [Example 601, 3-(5-(1-methyl-2-((1r,4r)-4-(trifluoromethyl)cyclohexyl)-1H-imidazol-4-yl)-1-oxoisoindolin-2-yl)piperidine-2,6-dione], in assay [1], the “CK1α Ymin” value is “E (E = >25-75% remaining)” and the DC50 (usually the midpoint of the concentration-degradation curve) is not below 25 nM. In addition, in assay [2], the half-maximal degradation concentration (DC50) was not below 25 nM and the “GSPT1 Ymin” value is on record as “E (E = >25-75% remaining)”.
As to `Cn1nc(-c2ccc3c(c2)CN(C2CCC(=O)NC2=O)C3=O)nc1N1CCOCC1` (centres unmarked) [Example 602, 3-(5-(1-methyl-5-morpholino-1H-1,2,4-triazol-3-yl)-1-oxoisoindolin-2-yl)piperidine-2,6-dione], in assay [1], the “CK1α Ymin” value is reported as “E (E = >25-75% remaining)” and the 50% degradation concentration (DC50) was less than 25 nM. For the same compound, in assay [2], the half-maximal degradation concentration (DC50) is not below 25 nM and the “GSPT1 Ymin” value was “F (F = >75-100% remaining)”.
Regarding `Cn1nc(-c2ccc3c(c2)CN(C2CCC(=O)NC2=O)C3=O)nc1N1CCC2(CC1)CC2` (centres unmarked) [Example 608, 3-(5-(1-methyl-5-(6-azaspiro[2.5]octan-6-yl)-1H-1,2,4-triazol-3-yl)-1-oxoisoindolin-2-yl)piperidine-2,6-dione], in assay [1], the “CK1α Ymin” value was “D (D = >10- 25% remaining)” and the half-maximal degradation concentration (DC50) was less than 25 nM. In addition, in assay [3], the DC50 was not below 25 nM and the “GSPT1 Ymin” value is recorded as “F (F = >75-100% remaining)”.
On the same counts, the results for `Cn1nc(-c2ccc3c(c2)CN(C2CCC(=O)NC2=O)C3=O)nc1N1Cc2ccccc2C1` (centres unmarked) [Example 609, 3-(5-(5-(isoindolin-2-yl)-1-methyl-1H-1,2,4-triazol-3-yl)-1-oxoisoindolin-2-yl)piperidine-2,6-dione] are “E (E = >25-75% remaining)”, less than 25 nM, not below 25 nM and “F (F = >75-100% remaining)”.
On the same counts, the results for `CC(C)n1nc(-c2ccccc2)nc1-c1ccc2c(c1)CN(C1CCC(=O)NC1=O)C2=O` (centres unmarked) [Example 610, 3-(5-(1-isopropyl-3-phenyl-1H-1,2,4-triazol-5-yl)-1-oxoisoindolin-2-yl)piperidine-2,6-dione] are “D (D = >10- 25% remaining)”, less than 25 nM, not below 25 nM and “E (E = >25-75% remaining)”.
For `Cn1nc(-c2ccc3c(c2)CN(C2CCC(=O)NC2=O)C3=O)nc1N1CCCCCC1` (centres unmarked) [Example 611, 3-(5-(5-(azepan-1-yl)-1-methyl-1H-1,2,4-triazol-3-yl)-1-oxoisoindolin-2-yl)piperidine-2,6-dione] the same measures were “C (C = 0-10% remaining)”, less than 25 nM, not below 25 nM and “F (F = >75-100% remaining)”.
As for `Cn1nc(-c2ccc3c(c2)CN(C2CCC(=O)NC2=O)C3=O)nc1N1CCC(C)(C)CC1` (centres unmarked) [Example 612, 3-(5-(5-(4,4-dimethylpiperidin-1-yl)-1-methyl-1H-1,2,4-triazol-3-yl)-1-oxoisoindolin-2-yl)piperidine-2,6-dione], in assay [1], the “CK1α Ymin” value was “D (D = >10- 25% remaining)” and the 50% degradation concentration (DC50) is less than 25 nM. In addition, in assay [3], the DC50 is not below 25 nM and the “GSPT1 Ymin” value is reported as “F (F = >75-100% remaining)”.
With `Cn1nc(-c2ccc3c(c2)CN(C2CCC(=O)NC2=O)C3=O)nc1N1CCC(F)(F)CC1` (centres unmarked) [Example 613, 3-(5-(5-(4,4-difluoropiperidin-1-yl)-1-methyl-1H-1,2,4-triazol-3-yl)-1-oxoisoindolin-2-yl)piperidine-2,6-dione], in assay [1], the “CK1α Ymin” value is given as “E (E = >25-75% remaining)” and the DC50 is less than 25 nM. For the same compound, in assay [3], the DC50 was not below 25 nM and the “GSPT1 Ymin” value is “F (F = >75-100% remaining)”.
Take `Cn1nc(-c2ccc3c(c2)CN(C2CCC(=O)NC2=O)C3=O)nc1[C@H]1CC[C@H](C)CC1` (some centres unmarked) [Example 616, 3-(5-(1-methyl-5-((1r,4r)-4-methylcyclohexyl)-1H-1,2,4-triazol-3-yl)-1-oxoisoindolin-2-yl)piperidine-2,6-dione]: in assay [1], the “CK1α Ymin” value was “E (E = >25-75% remaining)” and the DC50 was not below 25 nM. In addition, in assay [3], the half-maximal degradation concentration (DC50) is not below 25 nM and the “GSPT1 Ymin” value is listed as “F (F = >75-100% remaining)”.
Regarding `Cn1nc(-c2ccc3c(c2)CN(C2CCC(=O)NC2=O)C3=O)nc1[C@H]1CC[C@@H](C)CC1` (some centres unmarked) [Example 617, 3-(5-(1-methyl-5-((1s,4s)-4-methylcyclohexyl)-1H-1,2,4-triazol-3-yl)-1-oxoisoindolin-2-yl)piperidine-2,6-dione], in assay [1], the “CK1α Ymin” value is listed as “E (E = >25-75% remaining)” and the DC50 was less than 25 nM. Further, in assay [3], the half-maximal degradation concentration (DC50) is less than 25 nM and the “GSPT1 Ymin” value was “F (F = >75-100% remaining)”.
With `Cc1cn(-c2ccc3c(c2)CN(C2CCC(=O)NC2=O)C3=O)nc1-c1ccccc1` (centres unmarked) [Example 618, 3-(5-(4-methyl-3-phenyl-1H-pyrazol-1-yl)-1-oxoisoindolin-2-yl)piperidine-2,6-dione], in assay [1], the “CK1α Ymin” value is “D (D = >10- 25% remaining)” and the 50% degradation concentration (DC50) is less than 25 nM. In assay [3], the DC50 was not below 25 nM and the “GSPT1 Ymin” value is “F (F = >75-100% remaining)”.
As to `Cn1nc(-c2ccc3c(c2)CN(C2CCC(=O)NC2=O)C3=O)nc1-c1ccc(F)cc1` (centres unmarked) [Example 623, 3-(5-(5-(4-fluorophenyl)-1-methyl-1H-1,2,4-triazol-3-yl)-1-oxoisoindolin-2-yl)piperidine-2,6-dione], in assay [1], the “CK1α Ymin” value is “D (D = >10- 25% remaining)” and the half-maximal degradation concentration (DC50) was less than 25 nM. In assay [2], the DC50 is less than 25 nM and the “GSPT1 Ymin” value is recorded as “F (F = >75-100% remaining)”.
`Cn1cc(-c2ccc3c(c2)CN(C2CCC(=O)NC2=O)C3=O)nc1-c1ccccc1O` (centres unmarked) [Example 624]: in assay [1], the “CK1α Ymin” value is “C (C = 0-10% remaining)” and the DC50 was less than 25 nM. In assay [2], the 50% degradation concentration (DC50) is less than 25 nM and the “GSPT1 Ymin” value is “F (F = >75-100% remaining)”.
As to `COc1ccc(Cn2cc(-c3nc(-c4ccc5c(c4)CN(C4CCC(=O)NC4=O)C5=O)cn3C)cn2)cc1` (centres unmarked) [Example 625], in assay [1], the “CK1α Ymin” value was “C (C = 0-10% remaining)” and the 50% degradation concentration (DC50) was less than 25 nM. In addition, in assay [2], the half-maximal degradation concentration (DC50) was not below 25 nM and the “GSPT1 Ymin” value is on record as “F (F = >75-100% remaining)”.
On to `Cn1cc(-c2ccc3c(c2)CN(C2CCC(=O)NC2=O)C3=O)nc1-c1cccc(C(F)F)c1` (centres unmarked) [Example 626], for which, in assay [1], the “CK1α Ymin” value is “C (C = 0-10% remaining)” and the half-maximal degradation concentration (DC50) was less than 25 nM. For the same compound, in assay [2], the DC50 is not below 25 nM and the “GSPT1 Ymin” value was “F (F = >75-100% remaining)”.
On the same counts, the results for `Cn1cc(-c2ccc3c(c2)CN(C2CCC(=O)NC2=O)C3=O)nc1-c1ccc(O)cc1` (centres unmarked) [Example 627] are “C (C = 0-10% remaining)”, less than 25 nM, not below 25 nM and “E (E = >25-75% remaining)”.
For `Cn1cc(-c2ccc3c(c2)CN(C2CCC(=O)NC2=O)C3=O)nc1-c1ccc(F)c(F)c1` (centres unmarked) [Example 628] the same measures were “D (D = >10- 25% remaining)”, less than 25 nM, not below 25 nM and “F (F = >75-100% remaining)”.
For `Cn1cc(-c2ccc3c(c2)CN(C2CCC(=O)NC2=O)C3=O)nc1-c1ccc(Cl)cc1` (centres unmarked) [Example 629] the same measures were “C (C = 0-10% remaining)”, less than 25 nM, not below 25 nM and “F (F = >75-100% remaining)”.
Regarding `Cn1cc(-c2ccc3c(c2)CN(C2CCC(=O)NC2=O)C3=O)nc1-c1ccncc1` (centres unmarked) [Example 630], in assay [1], the “CK1α Ymin” value was “C (C = 0-10% remaining)” and the DC50 was not below 25 nM. Besides, in assay [2], the DC50 is not below 25 nM and the “GSPT1 Ymin” value was “F (F = >75-100% remaining)”.
In the case of `O=C1CCC(N2Cc3cc(-c4cn(C5CC5)c(-c5ccccc5)n4)ccc3C2=O)C(=O)N1` (centres unmarked) [Example 704, 3-(5-(1-cyclopropyl-2-phenyl-1H-imidazol-4-yl)-1-oxoisoindolin-2-yl)piperidine-2,6-dione], in assay [1], the “CK1α Ymin” value is “C (C = 0-10% remaining)” and the DC50 is less than 25 nM. Also, in assay [3], the half-maximal degradation concentration (DC50) is not below 25 nM and the “GSPT1 Ymin” value is given as “F (F = >75-100% remaining)”.

The values are drawn from US20240158370A1, “CK1 alpha AND DUAL CK1 alpha / GSPT1 DEGRADING COMPOUNDS” (Innovo Therapeutics, Inc., priority 2022, published 2024).
